Results taken from ChEMBL document CHEMBL1201862, “PubChem BioAssay data set” (2004).
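Assay format: 96-well plates, 48-hour exposure. GI50 is the concentration that inhibits growth by half.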 Activity calls are given as the source filed them. Cut-off read from the data, not from the text of the source: active = GI50 up to about 1.1 µM and inactive = higher.

Experiments:
Assay in all cases: inhibition of tumour cell growth, NCI panel, 48 h
786-0 = system: 786-0
A498 = system: A498
A549 = system: A549
ACHN = system: ACHN
BT-549 = system: BT-549
CAKI-1 = system: CAKI-1
COLO 205 = system: COLO 205
DU-145 = system: DU-145
EKVX = system: EKVX
HCT-116 = system: HCT-116
HCT-15 = system: HCT-15
HOP-62 = system: HOP-62
HOP-92 = system: HOP-92
HT-29 = system: HT-29
Hs-578T = system: Hs-578T
IGROV-1 = system: IGROV-1
K562 = system: K562
KM12 = system: KM12
M14 = system: M14
MCF7 = system: MCF7
MDA-MB-231 = system: MDA-MB-231
MDA-MB-435 = system: MDA-MB-435
MDA-N = system: MDA-N
Malme-3M = system: Malme-3M
NCI-H226 = system: NCI-H226
NCI-H23 = system: NCI-H23
NCI-H460 = system: NCI-H460
NCI-H522 = system: NCI-H522
NCI/ADR-RES = system: NCI/ADR-RES
OVCAR-3 = system: OVCAR-3
OVCAR-4 = system: OVCAR-4
OVCAR-5 = system: OVCAR-5
OVCAR-8 = system: OVCAR-8
PC-3 = system: PC-3
RPMI-8226 = system: RPMI-8226
RXF 393 = system: RXF 393
SF-268 = system: SF-268
SF-295 = system: SF-295
SF-539 = system: SF-539
SK-MEL-28 = system: SK-MEL-28
SK-MEL-2 = system: SK-MEL-2
SK-MEL-5 = system: SK-MEL-5
SK-OV-3 = system: SK-OV-3
SN12C = system: SN12C
SNB-19 = system: SNB-19
SNB-75 = system: SNB-75
SW-620 = system: SW-620
T47D = system: T47D
TK-10 = system: TK-10
U-251 = system: U-251
UACC-257 = system: UACC-257
UACC-62 = system: UACC-62
UO-31 = system: UO-31
CCRF-CEM = system: CCRF-CEM
HCC 2998 = system: HCC 2998
LOX IMVI = system: LOX IMVI
MOLT-4 = system: MOLT-4
SR = system: SR

## Cc1ccc(C2=Nc3ccccc3SC(c3cccc([N+](=O)[O-])c3)C2)cc1 (configuration not stated)
786-0
  GI50: 6.3 µM (inactive)
A498
  GI50: > 100 µM (inactive)
A549
  GI50: 26.2 µM (inactive)
ACHN
  GI50: > 100 µM (inactive)
BT-549
  GI50: 15.7 µM (inactive)
CAKI-1
  GI50: 51.4 µM (inactive)
COLO 205
  GI50: 58.7 µM (inactive)
DU-145
  GI50: 13.1 µM (inactive)
EKVX
  GI50: 49.7 µM (inactive)
HCT-116
  GI50: 3.6 µM (inactive)
HCT-15
  GI50: 48.1 µM
HOP-62
  GI50: 27.6 µM (inactive)
HOP-92
  GI50: 10.4 µM (inactive)
HT-29
  GI50: 5.96 µM (inactive)
Hs-578T
  GI50: 14.3 µM (inactive)
IGROV-1
  GI50: 8.34 µM (inactive)
K562
  GI50: 6.56 µM (inactive)
KM12
  GI50: 8.04 µM (inactive)
M14
  GI50: 23.9 µM (inactive)
MCF7
  GI50: 4.08 µM (inactive)
MDA-MB-231
  GI50: 40.6 µM (inactive)
MDA-MB-435
  GI50: 13.1 µM (inactive)
MDA-N
  GI50: 15.7 µM (inactive)
Malme-3M
  GI50: 26.7 µM (inactive)
NCI-H226
  GI50: > 100 µM (inactive)
NCI-H23
  GI50: 11.8 µM (inactive)
NCI-H460
  GI50: 27.9 µM (inactive)
NCI-H522
  GI50: 9.59 µM (inactive)
NCI/ADR-RES
  GI50: 59.6 µM (inactive)
OVCAR-3
  GI50: 8.59 µM (inactive)
OVCAR-4
  GI50: 27.4 µM (inactive)
OVCAR-5
  GI50: > 100 µM (inactive)
OVCAR-8
  GI50: 10.2 µM (inactive)
PC-3
  GI50: 10.2 µM (inactive)
RPMI-8226
  GI50: 2.38 µM (inactive)
RXF 393
  GI50: 16.4 µM (inactive)
SF-268
  GI50: 16.2 µM (inactive)
SF-295
  GI50: 28.4 µM (inactive)
SF-539
  GI50: 3.8 µM (inactive)
SK-MEL-28
  GI50: > 100 µM (inactive)
SK-MEL-2
  GI50: 34 µM (inactive)
SK-MEL-5
  GI50: 15.4 µM (inactive)
SK-OV-3
  GI50: 31.1 µM (inactive)
SN12C
  GI50: 34.1 µM (inactive)
SNB-19
  GI50: 26.9 µM (inactive)
SNB-75
  GI50: 11.4 µM (inactive)
SW-620
  GI50: 3.18 µM (inactive)
T47D
  GI50: 10.7 µM (inactive)
TK-10
  GI50: 14.5 µM (inactive)
U-251
  GI50: 4.59 µM (inactive)
UACC-257
  GI50: 24.7 µM (inactive)
UACC-62
  GI50: > 100 µM (inactive)
UO-31
  GI50: 5.4 µM (inactive)

## N#C/C(C(=O)Nc1ccccc1)=C(/N)N1CCOCC1
786-0
  GI50: > 100 µM (inactive)
A498
  GI50: > 100 µM (inactive)
A549
  GI50: > 100 µM (inactive)
ACHN
  GI50: > 100 µM (inactive)
BT-549
  GI50: > 100 µM (inactive)
CAKI-1
  GI50: > 100 µM (inactive)
CCRF-CEM
  GI50: > 100 µM (inactive)
COLO 205
  GI50: > 100 µM (inactive)
DU-145
  GI50: > 100 µM (inactive)
EKVX
  GI50: > 100 µM (inactive)
HCC 2998
  GI50: > 100 µM (inactive)
HCT-116
  GI50: > 100 µM (inactive)
HCT-15
  GI50: > 100 µM
HOP-62
  GI50: > 100 µM (inactive)
HOP-92
  GI50: > 100 µM (inactive)
IGROV-1
  GI50: > 100 µM (inactive)
K562
  GI50: > 100 µM (inactive)
KM12
  GI50: > 100 µM (inactive)
LOX IMVI
  GI50: > 100 µM (inactive)
M14
  GI50: > 100 µM (inactive)
MCF7
  GI50: > 100 µM (inactive)
MDA-MB-435
  GI50: > 100 µM (inactive)
MDA-N
  GI50: > 100 µM (inactive)
MOLT-4
  GI50: > 100 µM (inactive)
NCI-H226
  GI50: > 100 µM (inactive)
NCI-H23
  GI50: > 100 µM (inactive)
NCI-H460
  GI50: > 100 µM (inactive)
NCI/ADR-RES
  GI50: > 100 µM (inactive)
OVCAR-3
  GI50: > 100 µM (inactive)
OVCAR-5
  GI50: > 100 µM (inactive)
OVCAR-8
  GI50: > 100 µM (inactive)
PC-3
  GI50: > 100 µM (inactive)
RPMI-8226
  GI50: > 100 µM (inactive)
SF-295
  GI50: > 100 µM (inactive)
SF-539
  GI50: > 100 µM (inactive)
SK-MEL-28
  GI50: > 100 µM (inactive)
SK-MEL-2
  GI50: > 100 µM (inactive)
SK-MEL-5
  GI50: > 100 µM (inactive)
SK-OV-3
  GI50: > 100 µM (inactive)
SN12C
  GI50: > 100 µM (inactive)
SNB-19
  GI50: > 100 µM (inactive)
SNB-75
  GI50: > 100 µM (inactive)
SR
  GI50: > 100 µM (inactive)
SW-620
  GI50: > 100 µM (inactive)
T47D
  GI50: > 100 µM (inactive)
U-251
  GI50: > 100 µM (inactive)
UACC-257
  GI50: > 100 µM (inactive)
UACC-62
  GI50: > 100 µM (inactive)
UO-31
  GI50: > 100 µM (inactive)
